Assay [1] addresses T1, histone deacetylase 8 (HDAC8) (Homo sapiens, UniProt Q9BY41).
T1 sequence (Q9BY41 1-377): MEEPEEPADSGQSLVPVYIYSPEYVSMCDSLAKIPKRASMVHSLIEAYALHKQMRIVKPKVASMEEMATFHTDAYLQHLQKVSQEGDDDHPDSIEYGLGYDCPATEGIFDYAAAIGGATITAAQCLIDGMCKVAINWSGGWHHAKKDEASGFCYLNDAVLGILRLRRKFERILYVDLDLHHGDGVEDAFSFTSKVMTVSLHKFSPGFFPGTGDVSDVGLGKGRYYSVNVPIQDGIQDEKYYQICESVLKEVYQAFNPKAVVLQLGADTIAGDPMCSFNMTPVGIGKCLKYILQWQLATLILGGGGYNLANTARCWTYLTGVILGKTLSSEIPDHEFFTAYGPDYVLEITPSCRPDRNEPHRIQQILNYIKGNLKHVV
The experiment in a line: Fluor-de-Lys fluorescence deacetylase assay. It is filed as biochemical.

The target in assay [2] is acetylpolyamine amidohydrolase (APAH) (Mycoplana ramosa, UniProt Q48935). The experiment in a line: Fluor-de-Lys fluorescence deacetylase assay. It is filed as biochemical.
acetylpolyamine amidohydrolase (APAH), sequence (Q48935 whole entry): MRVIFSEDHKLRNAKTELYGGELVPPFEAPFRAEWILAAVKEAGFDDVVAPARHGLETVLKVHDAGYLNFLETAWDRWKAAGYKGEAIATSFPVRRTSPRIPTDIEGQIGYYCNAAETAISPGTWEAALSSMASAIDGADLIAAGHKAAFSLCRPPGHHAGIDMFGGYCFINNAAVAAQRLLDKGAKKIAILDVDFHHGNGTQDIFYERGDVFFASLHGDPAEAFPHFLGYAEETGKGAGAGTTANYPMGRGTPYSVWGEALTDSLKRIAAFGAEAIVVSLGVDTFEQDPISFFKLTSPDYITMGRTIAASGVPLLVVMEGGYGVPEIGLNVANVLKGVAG

By IC50 is commonly meant the concentration that gives 50% inhibition. Read a low IC50 as greater potency in that assay. Regarding `N[C@@H](CCCCC(=O)C(F)(F)F)C(=O)O` [compound 10, (S)-2-amino-8,8,8-trifluoro-7-oxo-octanoic acid], the half-maximal inhibitory concentration (IC50) in assay [1] amounted to 1.5 ± 0.2 µM; in assay [2], 110 ± 30 µM.
